# Measured values as given in US20050222182A1, “Stabilized pharmaceutical compositions of halofuginone and other quinazolinone derivatives” (priority 2002, published 2005).
# Like-named read-outs stand apart in the source and are kept apart here.
# Assays:
# [1] = physchem; format: physicochemical; conditions: aqueous buffer, thermodynamic from solid
# Description: The solubility of halofuginone in several solvents was first studied. Powder of halofuginone was dissolved in the different solvents, starting from over saturation and followed by dilutions.
# [2] = format: physicochemical; conditions: for Ea (degradation activation energy): 1 mg/ml
# Description: Halofuginone HBr powder was dissolved in acetonitrile and the solution was mixed with 4 volumes ([…]) of borate buffer to yield a […] solution. Buffer solutions at pH 5.5, 6.5, and 7.5 were prepared by mixing various amounts of sodium borate solution (12 g in 240 ml DDW) to boric acid solution (12 g in 240 ml DDW). The solutions were filtered through a 0.2 micron filter into a tightly closed glass vial coated with aluminum foil to protect from light. The solutions (1.25 ml, 1 mg/ml in acetonitrile: buffer 1:4) were kept in temperature controlled incubators at 4, 25, 37 and 60° C. At time of analysis, about 50 μl of the solution was taken and immediately injected to the HPLC.
# Halofuginone was determined by HPLC using the following equipment and conditions: • Instrument: HP 1050 with HPCHEM software • Column: C8, Lichospher 60 (5, μm) LichoCART 125-4, Cat. No. 1.50213 (Merck) (similar to Hypersil BDS C8 used by AminoLab) with precolumn Lichospher 100 RP-8, 5 μm, 4×4 mm, Cat. No. 1.50961 (Merck) • Column temp: ambient • Flow rate: isocratic, 1 ml/min Eluant: Acetonitrile: 0.1 M sodium citrate buffer pH3.0 at a 30:70 v/v • Detector: UV 254 nm • Sample volume: 20 μl • Run time: 15 min., halofuginone Rt=8.8 min.; degradation product Rt=11.7 Results:
# Analysis: Halofuginone was analyzed by HPLC with UV detector. The retention times for halofuginone and its main degradation product (cis isomer) are 8.8 min and 11.7 min, respectively.
# Stability: Halofuginone concentrations were followed for 24 hours. […] The decrease in halofuginone concentrations for the solutions kept at 25° C. and above is shown in FIG. 1 and the rate constants are summarized in Table 1. The degradation activation energies at different pH solutions were estimated from the plot of ln(Kobs) vs. 1/T and are summarized in Table 1. The activation energies were calculated from the slopes of ln(Kobs) vs. 1/T. The activation energies are in the range of 6.57-13.13 Kcal.
# [3] = format: physicochemical
# Excerpt: A commercially useful solution formulation was developed based on halofuginone dissolved in lactate buffer and the stability data shown in FIGS. 2 and 3. The stability of halofuginone in sodium lactate buffer (4% pH 4) was unaffected by the presence of saline in the final solution.
Structure (SMILES),solubility [1] [µg/mL],Ea (degradation activation energy) ([2]; pH 5.5) [kcal],Ea (degradation activation energy) ([2]; pH 6.5) [kcal],Ea (degradation activation energy) ([2]; pH 7.5) [kcal],Slope [ln(Kobs)/1/T] ([2]; pH 5.5),Activation energies (range over pH solutions) ([2]; pH 5.5-7.5),Slope [ln(Kobs)/1/T] ([2]; pH 6.5),Slope [ln(Kobs)/1/T] ([2]; pH 7.5),Stability in lactate buffer pH 4.0 compared to distilled water [3]
O=C(CC1NCCCC1O)Cn1cnc2cc(Br)c(Cl)cc2c1=O (stereo not drawn) [halofuginone-Hbr],≥ 5000,–,–,–,–,–,–,–,–
"O=C(C[C@@H]1NCCC[C@H]1O)Cn1cnc2cc(Br)c(Cl)cc2c1=O (racemic) [halofuginone, 7-bromo-6-chloro-3-[3-(3-hydroxy-2-piperidinyl)-2-oxopropyl]-4(3H)-quinazolinone]",–,13.13,8.38,6.57,"26,134",6.57-13.13 Kcal,"16,685","13,412",higher stability
